Measured values from patent US5578622A, “Isothiazole derivatives and their uses” (Asamura Patent Office, priority 1994, dated 1996).

What was measured:
[1] = tested on: Gibberella fujikuroi ("Bakanae" disease of rice); test: Test for rice seed-disinfecting effect; type: in vivo; conditions: Fusarium fujikuroi, 504 h, seed immersion 25° C. 24 hours, three weeks after treatment, read-out: Controlling effect (control of disease), "Bakanae" disease of rice
Description: 2-1 Test for rice seed-disinfecting effect
Unhulled rice infected with Gibberella fujikuroi ("Bakanae" disease of rice) was immersed in a test compound adjusted to 1000 ppm at 25° C. for 24 hours. Water was lightly swished off the seed, which was then sowed and germinated for two days. Three weeks after treatment with the solution containing the compound, the rate of the infected seedlings was examined, and the control of disease was calculated by comparison with that of the untreated plot. The control of disease was shown as a controlling effect on the basis of the following standard.

[2] = tested on: Pseudoperonospora cubensis; test: Test for controlling effect on downy mildew of cucumber; type: in vivo; conditions: 168 h, 200 ppm spray, one day before inoculation, cucumber 2-leaf stage, read-out: Controlling effect (control of disease), Downy mildew of cucumber
Description: 2-2 Test for controlling effect on downy mildew of cucumber (Pseudoperonospora cubensis) A test compound adjusted to 200 ppm was sprayed onto cucumber at the 2-leaf stage cultivated in pots. After one day, the cucumber was inoculated by spraying the zoospore suspension of Pseudoperonospora cubensis. After inoculation, the cucumber was placed in a 25° C.-humid room for 1 day and then in a greenhouse for 6 days. Thus, the cucumber was made to be infected with downy mildew. The control of disease of the test compound is calculated by comparing the degree of infection of each leaf with that in the untreated plot. The control of disease is shown as a controlling effect in the same manner as in Test Example 2-1.

Rhizoctonia solani = test: Test for controlling effect on sheath blight of rice; type: in vivo; conditions: 120 h, 200 ppm spray, 24 hours after inoculation, rice 4-leaf stage, five days after inoculation, read-out: Controlling effect (control of disease), Sheath blight of rice
Description: 2-3 Test for controlling effect on sheath blight of rice (Rhizoctonia solani) Rice seedlings at the 4-leaf stage were inoculated with the mycelium of sheath blight of rice (Rhizoctonia solani). After 24 hours, a test medicine solution adjusted to 200 ppm was sprayed onto the seedlings. After air-drying, the seedlings were placed in a humid room for 24 hours where the temperature was kept at 28° C. and humidity was kept at 98%. Thereafter, the seedlings were transferred to a greenhouse, and five days after inoculation, the degree of infected area was examined. The control of disease was calculated by comparison with that in the untreated plot. The control of disease is shown as a controlling effect in the same manner as in Test Example 2-1.

Trichoderma viride = test: Test for wood rotting-preventing effect (mycelium growth inhibition on malt extract agar); type: cell-based; conditions: 28° C.±2° C., 2 to 10 days, read-out: Rotting preventing effect (mycelium growth-inhibitory rate), TRV
Description: (§1) The following fungi were cultured in agar media, respectively, and mycelial disks on the media were stamped out together with the agar using a cork borer of 4 mm in diameter. The resulting mycelial disks on agar were used as an inoculum. Each test compound of 50 ppm was added to a malt extract agar medium and added in parts to Petri dishes. The above prepared inoculum was put on the Petri dishes and cultured at 28° C.±2° C. Two to ten days after inoculation, the diameter of the mycelial disk of each fungus was measured, and the mycelium growth-inhibitory rate was obtained according to the following equation. [formula] The mycelium growth-inhibitory rate (%) is indicated by the following symbols as a fungicidal effect on each fungus, and the results are shown in Table 2. | TRV: Trichoderma viride

Tyromyces palustris = test: as above; type: cell-based; conditions: 28° C.±2° C., 2 to 10 days, read-out: Rotting preventing effect (mycelium growth-inhibitory rate), TYP
Description: as §1, with “TYP: Tyromyces palustris” for “TRV: Trichoderma viride”

Aspergillus niger = test: as above; type: cell-based; conditions: 28° C.±2° C., 2 to 10 days, read-out: Rotting preventing effect (mycelium growth-inhibitory rate), ASN
Description: as §1, with “ASN: Aspergillus niger” for “TRV: Trichoderma viride”

Rhizopus nigricans = test: as above; type: cell-based; conditions: Rhizopus stolonifer, 28° C.±2° C., 2 to 10 days, read-out: Rotting preventing effect (mycelium growth-inhibitory rate), RHN
Description: as §1, with “RHN: Rhizopus nigricans” for “TRV: Trichoderma viride”

Row | Compound | pest or weed control at 1000 ppm [1] [%] | pest or weed control at 200 ppm [2] [%] | pest or weed control at 200 ppm (Rhizoctonia solani) [%] | inhibition at 50 ppm (Trichoderma viride) [%] | inhibition at 50 ppm (Tyromyces palustris) [%] | inhibition at 50 ppm (Aspergillus niger) [%] | inhibition at 50 ppm (Rhizopus nigricans) [%]
1 | N#CCSc1snc(OCC#CI)c1C#N [Compound 17] | 95 to 100 | 95 to 100 | 95 to 100 |  |  |  | 
2 | C#CCSc1snc(OCC#CI)c1C#N [Compound 10] |  |  |  | 80 to 94 | 95 to 100 | 95 to 100 | 80 to 94
3 | C=CCSc1snc(SCOCC#CI)c1C#N [Compound 132] |  |  |  | 95 to 100 | 95 to 100 | 95 to 100 | 95 to 100
4 | CC(C#CI)OCOc1nsc(N(C)C)c1C#N (stereo not shown) [Compound 115] | 95 to 100 | 80 to 94 | 95 to 100 | 95 to 100 | 95 to 100 | 95 to 100 | 95 to 100
5 | CCCCN(C)c1snc(OCC#CI)c1C#N [Compound 32] | 80 to 94 | 95 to 100 | 60 to 79 |  |  |  | 
6 | COC(=O)Sc1snc(OCC#CI)c1C#N [Compound 20] | 80 to 94 | 95 to 100 | 60 to 79 | 95 to 100 | 95 to 100 | 80 to 94 | 60 to 79
7 | CCSc1snc(SCOCC#CI)c1C#N [Compound 129] |  |  |  | 95 to 100 | 95 to 100 | 80 to 94 | 80 to 94
8 | CCS(=O)(=O)c1snc(OCCC#CI)c1C#N [Compound 78] | 95 to 100 | 80 to 94 | 95 to 100 | 95 to 100 | 95 to 100 | 95 to 100 | 95 to 100
9 | N#Cc1c(OCC#CI)nsc1SCOCC#CI [Compound 142] |  |  |  | 95 to 100 | 95 to 100 | 95 to 100 | 95 to 100
10 | CC(OCC#CI)Oc1nsc(SC(F)F)c1C#N (stereo not shown) [Compound 122] | 95 to 100 | 95 to 100 | 95 to 100 | 95 to 100 | 95 to 100 | 95 to 100 | 95 to 100
11 | CCCSc1snc(OCOCC#CI)c1C#N [Compound 87] |  |  |  | 95 to 100 | 95 to 100 | 95 to 100 | 95 to 100
12 | CSc1snc(OCOC(C)C#CI)c1C#N (stereo not shown) [Compound 110] | 95 to 100 | 95 to 100 | 95 to 100 | 95 to 100 | 95 to 100 | 95 to 100 | 95 to 100
13 | CC(=O)Oc1nsc(SCOCC#CI)c1C#N [Compound 67] | 80 to 94 | 80 to 94 | 95 to 100 | 80 to 94 | 95 to 100 | 80 to 94 | 95 to 100
14 | CSc1snc(OCOCC#CI)c1C#N [Compound 85] |  |  |  | 95 to 100 | 95 to 100 | 95 to 100 | 95 to 100
15 | N#Cc1c(OCC#CI)nsc1SC1CCCC1 [Compound 7] |  |  |  | 60 to 79 | 95 to 100 | 60 to 79 | 60 to 79
16 | CCOc1nsc(SC(C)OCC#CI)c1C#N (stereo not shown) [Compound 126] |  |  |  | 95 to 100 | 95 to 100 | 95 to 100 | 95 to 100
17 | CCS(=O)(=O)c1snc(OCOCC#CI)c1C#N [Compound 94] | 95 to 100 | 95 to 100 | 95 to 100 | 95 to 100 | 95 to 100 | 95 to 100 | 95 to 100
18 | COCCOc1nsc(OCCC#CI)c1C#N [Compound 84] |  |  |  | 95 to 100 | 95 to 100 | 95 to 100 | 95 to 100
19 | CC(C)Oc1nsc(OCC#CI)c1C#N [Compound 51] |  |  |  | 95 to 100 | 95 to 100 | 95 to 100 | 95 to 100
20 | CCOc1snc(OCOC(C)C#CI)c1C#N (stereo not shown) [Compound 114] | 95 to 100 | 95 to 100 | 80 to 94 |  |  |  | 
21 | N#Cc1c(OCC#CI)nsc1S(=O)(=O)C1CCCC1 [Compound 46] |  |  |  | 60 to 79 | 95 to 100 | 80 to 94 | 60 to 79
22 | CC(C)Sc1snc(OCCC#CI)c1C#N [Compound 72] |  |  |  | 95 to 100 | 95 to 100 | 95 to 100 | 95 to 100
23 | C=CCSc1snc(OCC#CI)c1C#N [Compound 8] | 95 to 100 | 95 to 100 | 60 to 79 |  |  |  | 
24 | COCCSc1snc(OCC#CI)c1C#N [Compound 15] | 95 to 100 | 80 to 94 | 80 to 94 |  |  |  | 
25 | CCSc1snc(OCC#CI)c1C#N [Compound 2] |  |  |  | 80 to 94 | 95 to 100 | 60 to 79 | 80 to 94
26 | C=CC[S+]([O-])c1snc(OCC#CI)c1C#N (stereo not shown) [Compound 47] | 95 to 100 | 80 to 94 | 95 to 100 |  |  |  | 
27 | COc1snc(OCOCC#CI)c1C#N [Compound 95] |  |  |  | 95 to 100 | 95 to 100 | 95 to 100 | 95 to 100
28 | N#Cc1c(SCOCC#CI)nsc1SCOCC#CI [Compound 140] | 80 to 94 | 95 to 100 | 80 to 94 |  |  |  | 
29 | CC(C)Oc1snc(OCOCC#CI)c1C#N [Compound 98] |  |  |  | 95 to 100 | 95 to 100 | 95 to 100 | 95 to 100
